One series concerns Ty-82. The experiment in a line: Cytotoxicity against human Ty-82 cells assessed as growth inhibition incubated for 72 hrs by WST-1 assay. The note with it: TY82, 72 h. Background: Formazan colour is commonly taken as a measure of viable cells.
For the next series, the system named is MV4-11. The experiment in a line: Cytotoxicity against human MV4-11 cells assessed as growth inhibition incubated for 72 hrs by WST-1 assay. The note with it: MV4-11, 72 h.
The next series deals with THP-1. Put plainly: Antiproliferative activity against human THP-1 cells assessed as growth inhibition incubated for 72 hrs by WST-1 assay. Particulars: THP-1, 72 h.
The test system of a further series is MOLT-4. Put plainly: Antiproliferative activity against human MOLT-4 cells assessed as growth inhibition incubated for 72 hrs by WST-1 assay. Particulars: MOLT-4, 72 h.
The test system of another series is K562. The experiment in a line: Antiproliferative activity against human K562 cells assessed as growth inhibition incubated for 72 hrs by WST-1 assay. The note with it: K562, 72 h.
The test system of the next series is Pfeiffer. Put plainly: Antiproliferative activity against human Pfeiffer cells assessed as growth inhibition incubated for 72 hrs by WST-1 assay.
The subject of another series is SUD4. The experiment in a line: Antiproliferative activity against human SU-DHL-4 cells assessed as growth inhibition incubated for 72 hrs by WST-1 assay. The note with it: SU-DHL-4, 72 h.
In a further series the test system is U2932. Put plainly: Antiproliferative activity against human U2932 cells assessed as growth inhibition incubated for 72 hrs by WST-1 assay. Particulars: U2932, 72 h.
For the next series, the system named is BJAB. The experiment in a line: Antiproliferative activity against human BJAB cells assessed as growth inhibition incubated for 72 hrs by WST-1 assay.
The test system of a further series is Daudi. The experiment in a line: Antiproliferative activity against human Daudi cells assessed as growth inhibition incubated for 72 hrs by WST-1 assay.
The next series deals with Raji. Put plainly: Antiproliferative activity against human Raji cells assessed as growth inhibition incubated for 72 hrs by WST-1 assay.
The next series deals with NCI-H1666. Put plainly: Antiproliferative activity against human NCI-H1666 cells assessed as growth inhibition incubated for 72 hrs by WST-1 assay. The note with it: NCI-H1666, 72 h.
The subject of a further series is NCI-H1975. Put plainly: Antiproliferative activity against human NCI-H1975 cells assessed as growth inhibition incubated for 72 hrs by WST-1 assay. The note with it: NCI-H1975, 72 h.
Series [1] in a line: Antiproliferative activity against human SNU-2535 cells assessed as growth inhibition incubated for 72 hrs by WST-1 assay. Particulars: SNU-2535, 72 h.
A further series has as its system LS-1034. Put plainly: Antiproliferative activity against human LS1034 cells assessed as growth inhibition incubated for 72 hrs by WST-1 assay. Particulars: LS-1034, 72 h.
The next series has as its system T-24. Put plainly: Antiproliferative activity against human T24 cells assessed as growth inhibition incubated for 72 hrs by WST-1 assay. Particulars: T-24, 72 h.
A further series concerns KU-19-19. Put plainly: Antiproliferative activity against human KU-19-19 cells assessed as growth inhibition incubated for 72 hrs by WST-1 assay. Particulars: KU-19-19, 72 h.
The target of series [2] is T1, Bromodomain-containing protein 4 (Homo sapiens, UniProt O60885). Put plainly: Binding affinity to human BRD4 BD1 expressed in Escherichia coli BL21 (DE3) assessed as dissociation constant by bromodomain analysis.
Series [3] concerns the target T1, Bromodomain-containing protein 4. The experiment in a line: Binding affinity to human BRD4 BD2 expressed in Escherichia coli BL21 (DE3) assessed as dissociation constant by bromodomain analysis.
The target is the same in series [4]. The experiment in a line: Binding affinity to human BRD4 BD1 expressed in Escherichia coli BL21 (DE3) assessed as dissociation constant by ITC analysis. For orientation: In ITC the heat of successive injections is recorded.
Series [5] shares this target. The experiment in a line: Binding affinity to human BRD4 BD2 expressed in Escherichia coli BL21 (DE3) assessed as dissociation constant by ITC analysis.
The nature of series [6]: Half life in rat at 5 mg/kg, po. Particulars: in vivo.
The nature of series [7]: in vivo. Particulars: rat, po, 5 mg/kg.
Description: Tmax in rat at 5 mg/kg, po
A short description of series [8]: in vivo. The note with it: rat, po, 5 mg/kg. This is another data set of the same source.
Description: Cmax in rat at 5 mg/kg, po
A short description of series [9]: in vivo. Particulars: rat, po, 5 mg/kg. This is another data set of the same source.
Description: AUC (0 to t) in rat at 5 mg/kg, po
The nature of series [10]: in vivo. The note with it: rat, po, 5 mg/kg. The source holds these as a separate data set.
Description: AUC (0 to infinity) in rat at 5 mg/kg, po

Each structure is given as a SMILES string. Bounds are passed on as bounds.

Broadly, the GI50 is the concentration that inhibits growth by half. Turning to `Cc1sc2c(c1C)C(c1ccc(Cl)cc1)=N[C@@H](CC(=O)Nc1ccc(O)cc1)c1nnc(C)n1-2` [BIRABRESIB], the GI50 is 67 nM in the series with Ty-82; 30 nM with MV4-11; 40 nM with THP-1; above 10 µM in the series on MOLT-4; above 10 µM in the series on K562; 210 nM in the series on Pfeiffer. Also, the GI50 was 2800 nM in the series with SUD4; above 10 µM in the series on U2932; 130 nM in the series on BJAB; 4 µM in the series on Daudi; above 10 µM in the series with Raji; above 10 µM with NCI-H1666. For the same compound, the GI50 with NCI-H1975 is above 10 µM; in series [1] it was above 10 µM; in the series with LS-1034, above 10 µM; in the series with T-24 it was 7.9 µM; with KU-19-19, above 10 µM.
The Kd is a measure of binding affinity in units of concentration. Turning to `Cc1nnc2c(NCCCCNC(=O)c3ccccc3)nc3ccccc3n12`, the results for the Kd in series [2] and in series [3] were 29 nM and 180 nM, respectively. For the same compound, the results for the GI50 with Ty-82 and with MV4-11 were 950 nM and 790 nM, respectively.
On to `Cc1nnc2c(NCCCCCCNC(=O)OC(C)(C)C)nc3ccccc3n12`, for which the Kd in series [2] and in series [3] was above 5000 nM in each case. In the series with Ty-82, the GI50 is above 10000 nM.
For the compound `Cc1nnc2c(NCCCCNC(=O)c3ccccc3Cl)nc3ccccc3n12`, the Kd in series [2] was found to be 32 nM; in [3] it was 110 nM. The GI50 in the series on Ty-82 amounted to 9600 nM.
The matching figures for `Cc1nnc2c(NCCCCNC(=O)OC(C)(C)C)nc3cc(C(=O)O)ccc3n12`: 36 nM, 220 nM and 650 nM.
With `COc1ccc2c(c1)nc(OCCCCNC(=O)CC(C)C)c1nnc(C)n12`, the Kd in series [2] and in [3] was above 5000 nM in each case. Further, the GI50 with Ty-82 and in the series on MV4-11 was above 10000 nM each time.
On to `COc1ccc2c(c1)nc(NCCCCNC(=O)CC(C)C)c1nnc(C)n12`, for which the Kd in [4] worked out at 6.7 nM; in series [5], 293 nM.
For orientation: half-life means how long it takes for the measured level to halve. Read a low half-life as rapid decline. The term Tmax denotes the time from dosing to the highest level. Usually Cmax stands for the peak of the concentration-time curve. As a reminder, the AUC(0-t) is exposure summed from dosing to a finite time, without extrapolation to infinity. High values mean high exposure, low ones low exposure. By AUC(0-inf) is commonly meant the area under the concentration-time curve extrapolated to infinity. Higher therefore signals high exposure. Consider `Cc1nnc2c(NCCCCNC(=O)OC(C)(C)C)nc3ccccc3n12`, for which the results for the Kd in [2] and in [3] were 40 nM and 190 nM, respectively. The GI50 in the series with Ty-82 is 1000 nM; with MV4-11, 980 nM. In series [6], this compound gave a half-life of 211 min. Besides, in “in vivo [7]”, the Tmax amounted to 40 min. In addition, the Cmax in “in vivo [8]” was determined as 180 ng/mL. In addition, the AUC(0-t) in the series “in vivo [9]” was 574 ng·h/mL. The compound further returned an AUC(0-inf) in “in vivo [10]” of 851 ng·h/mL.
